Assay results: patent US6914045B2, “Glycopeptide antibiotics” (Wyeth Holdings Corporation, priority 2001, dated 2005)

Tests used:
Test in all cases: in vitro antibacterial evaluation, MIC by broth dilution
Type in all cases: cell-based
Details in all cases: broth dilution, 18 hours at 35° C.
Enterococcus sp. = tested on: Enterococcus sp.
Protocol: (§1) Methods for in vitro Antibacterial Evaluation (Table 1)
(§2) The minimum inhibitory concentration (MIC), the lowest concentration of the antibiotic which inhibits growth of the test organism, is determined by the broth dilution method using Muller-Hinton II […] (Baltimore Biological Laboratories) following the recommendations of the National Committee for Clinical Laboratory Standards [Methods for dilution antimicrobial susceptibility tests for bacteria that grow aerobically, approved standard M7-A2, National Committee for Clinical Laboratory Standards, Villanova, Pa.].
(§3) An inoculum level of 5×10^5 CFU/mL, and a range of antibiotic concentrations (64-0.06 μg/mL) is used. […] The test organisms include a spectrum of Gram-positive bacteria comprised of Staphylococcus sp., Streptococcus sp. and Enterococcus sp. These organisms include recent clinical isolates that are resistant to methicillin, penicillin and/or vancomycin.

Staphylococcus sp. = tested on: Staphylococcus sp.
Protocol: as §1, §2, §3

Streptococcus sp. = tested on: Streptococcus sp.
Protocol: as §1, §2, §3

Escherichia coli = tested on: Escherichia coli
Method in brief: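 Broth dilution MIC per NCCLS M7-A2 in Mueller-Hinton II medium, inoculum 5×10^5 CFU/mL, antibiotic range 64-0.06 μg/mL. MIC taken as lowest concentration inhibiting growth.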

CC(c1ccccc1)C1NC(=O)CNC(=O)C(CO)NC(=O)C(C(O)C2CNC(=N)N2C2OC(CO)C(O)C(O)C2O)NC(=O)C(C(O)C2CNC(=N)N2)NC(=O)C(Cc2ccc3oc(SCC(=O)c4ccc(Cl)cc4)nc3c2)NC1=O (stereo not shown) [Example 49]
8 µg/mL: MIC Enterococcus faecium (GC 2243) (Enterococcus sp.; strain GC 2243) | MIC Enterococcus faecium (GC 4556) (Enterococcus sp.; strain GC 4556) | MIC Staphylococcus aureus (ATCC 29213) (Staphylococcus sp.; strain ATCC 29213) | MIC Streptococcus pneumoniae (ATCC 6301) (Streptococcus sp.; strain ATCC 6301) | MIC Streptococcus pneumoniae (GC 1894) (Streptococcus sp.; strain GC 1894) | MIC Streptococcus pneumoniae (GC 4565) (Streptococcus sp.; strain GC 4565) | MIC Escherichia coli (GC 4559) (Escherichia coli; strain GC 4559)
1 µg/mL: MIC Staphylococcus haemolyticus (GC 4546) (Staphylococcus sp.; strain GC 4546) | MIC Coagulase Negative Staphylococcus (GC 4549) (Staphylococcus sp.; strain GC 4549)
2 µg/mL: MIC Enterococcus faecalis (GC 4552) (Enterococcus sp.; strain GC 4552) | MIC Enterococcus faecium (GC 4557) (Enterococcus sp.; strain GC 4557) | MIC Staphylococcus aureus-SMITH (GC 4543) (Staphylococcus sp.; strain GC 4543) | MIC Staphylococcus aureus (GC 4545) (Staphylococcus sp.; strain GC 4545) | MIC Coagulase Negative Staphylococcus (GC 4548) (Staphylococcus sp.; strain GC 4548) | MIC Streptococcus pyogenes (GC 4563) (Streptococcus sp.; strain GC 4563)
16 µg/mL: MIC Enterococcus faecalis (ATCC 29212) (Enterococcus sp.; strain ATCC 29212) | MIC Enterococcus faecalis (GC 2242) (Enterococcus sp.; strain GC 2242) | MIC Enterococcus faecalis (GC 2691) (Enterococcus sp.; strain GC 2691) | MIC Enterococcus faecalis (GC 4554) (Enterococcus sp.; strain GC 4554) | MIC Enterococcus faecalis (GC 6189) (Enterococcus sp.; strain GC 6189) | MIC Escherichia coli (ATCC 25922) (Escherichia coli; strain ATCC 25922)
4 µg/mL: MIC Enterococcus faecalis (GC 4553) (Enterococcus sp.; strain GC 4553) | MIC Enterococcus avium (GC 4558) (Enterococcus sp.; strain GC 4558) | MIC Staphylococcus aureus (GC 1131) (Staphylococcus sp.; strain GC 1131) | MIC Staphylococcus aureus (GC 3051) (Staphylococcus sp.; strain GC 3051) | MIC Staphylococcus aureus (GC 3053) (Staphylococcus sp.; strain GC 3053) | MIC Staphylococcus aureus (GC 4541) (Staphylococcus sp.; strain GC 4541) | MIC Staphylococcus aureus (GC 4542) (Staphylococcus sp.; strain GC 4542) | MIC Staphylococcus aureus (GC 4544) (Staphylococcus sp.; strain GC 4544) | MIC Coagulase Negative Staphylococcus (GC 4547) (Staphylococcus sp.; strain GC 4547) | MIC Coagulase Negative Staphylococcus (GC 4551) (Staphylococcus sp.; strain GC 4551) | MIC Streptococcus agalactiae (GC 4564) (Streptococcus sp.; strain GC 4564) | MIC Escherichia coli (GC 4560) (Escherichia coli; strain GC 4560)
32 µg/mL: MIC Enterococcus faecalis (GC 3059) (Enterococcus sp.; strain GC 3059)
